# Data taken from article PMC10499988 (Nature Communications, 2023).
# Like-named read-outs stand apart in the source and are kept apart here. Positions of bridges follow the written chain, without caps; N, C: chain ends. Residues, ends and D or L forms follow the SMILES beside them.
# How the values were obtained:
# [1] = In vivo pharmacokinetic experiment, plasma LC-MS after tail vein injection
# Experimental: All the procedures and experiments involving animals were carried out using a protocol approved by the Health Sciences Laboratory Animal Services (HSLAS), University of Alberta. The protocol was approved as per the Canadian Council on Animal Care (CCAC) guidelines. Approved protocol # AUP00002467. All mice (Strain: C57BL/6J) were maintained in pathogen-free conditions at the University of Alberta breeding facility. Housed on ventilated caging (Tecniplast); Temperature: 21 +/− 2 degrees Celsius; Humidity: 30–70% rH; Light Cycle: 12 L:12D. […] Peptide mixtures of 100 µM were prepared in PBS. Mice were administered with 200 µL of the peptide mixture solution with tail veil injection. A series of 6 blood samples were collected at time points from 2 min up to 240 min (Fig. 6B: 2 min, 60 min; Fig. 6C–E: 2 min, 60 min, 180 min; Supplementary Fig. 32: 2 min, 5 min, 30 min, 60 min, 120 min, 240 min). Samples were collected in tubes that contained sodium citrate as an anticoagulant and then centrifuged at 5 min at 2000 × g to collect the blood plasma. 10 µL of plasma portion were transferred into a tube containing 40 µL of 8:2 acetonitrile/water to precipitate proteins. The samples were centrifuged at 17,000 × g for 10 min at 4 °C. Supernatants were then transferred to new tubes and subjected to analysis by LC-MS. […]
# assays. The fluorescent-labeled peptides w ere dissolved to 10 m M in D M SO and diluted to 20 µM in DM SO for use. Each well contained 19 µL of HSA in PBSwith the range of final […]
# 1 µL of 20 µM of fluorescentlly labeled peptide was added to the wells to a final concentration of 1 µM . Each measuring point was made in duplicate. Before measuring, the plate was centrifuged 500×g for 5 min at RT, incubated for 10 m in, and shaken for 5 m in the dark. The m easurem ent w as perform ed in Cytation5 Cell Imaging Multi-Mode Reader from BioTek. The data were analyzed and processed in […]
# 26. […]
# prepared with the identical buffer as the peptides to a final concentration of 40 µM . […] The data were evaluated using the MicroCalTM OriginTM Version 5.0. […]
# HSA [2] = target: T1, HSA (Homo sapiens, UniProt P02768); design: purchased Sigma-Aldrich A4327-1G; conditions: cited from earlier work
# HSA [3] = target: T1, HSA; conditions: 19F NMR competition
# [4] = target: Serum albumin (Homo sapiens) (UniProt P02768); conditions: cited from earlier work
# [5] = Reactivity of macrocycles with thiol nucleophiles; type: physicochemical; conditions: several hours, basic pH
# Description: 6-10 Å and the PM F of the pocket 1 starts to deviate from the others, we performed hydrogen bond interaction searches with 3.5 Å cut off distance between a donor and an acceptor at intermediate regime from umbrella sampling simulations. These findings […]
# of the peptide to the pocket 1 binding site of albumin. This was supported by the fact that […]
# simulation time (Supplementary Fig. 27). O verall, these findings provide im portant insights into the m echanism of binding betw een the peptide and album in, w hich could inform the design of future albumin-binding peptides with improved affinity and specificity. The concurrence of the docking results and the experimental binding data provides strong evidence that our simulations accurately predicted the binding for 14c.
# Supplementary Fig. 7. […] The OFS-SWCRC […]
# peptide was added with one equivalent of GSH in 60% acetonitrile in 50 mM Tris-HCl at pH 8.5.
# The reaction was monitored by LC–MS.
# Supplementary Fig. 8. Stability of the PFS stapled peptides (A ) Results of the PFS-SW CRC mixed with 2-mercaptoethanol and analyzed by LC–MS after 1 hour and 3 weeks. The PFS-SW CRC macrocycle was combined with 1 equivalent of 2-mercaptoethanol in 60% acetonitrile and 50 mM Tris-HCl at pH 8.5. The mixture was monitored by LC–MS. […]
# spectrum of 1 mg of PFS- […] mixed with 1 mg of HSA over 19 days in PBS. The mixture was monitored by 19F NMR in PBS, 10% D2O
# [6] = C57BL/6J, mouse, plasma, iv, 200 uL of 100 uM peptide mixture
molecule,measurement,setting,value
CC[C@H](C)[C@H](NC(=O)[C@H](CC(C)C)NC(=O)[C@H](CCCNC(=N)N)NC(C)=O)C(=O)N[C@@H](CCC(=O)O)C(=O)N[C@@H](CC(=O)O)C(=O)N[C@H](C(=O)N[C@H]1CSSC[C@@H](C(=O)N[C@@H](CC(C)C)C(=O)N[C@@H](Cc2c[nH]c3ccccc23)C(=O)N[C@@H](CCC(=O)O)C(=O)N[C@@H](CC(=O)O)C(=O)N[C@@H](CC(=O)O)C(N)=O)NC(=O)CNC(=O)[C@H](Cc2c[nH]c3ccccc23)NC(=O)[C@H](CCCNC(=N)N)NC(=O)[C@@H]2CCCN2C(=O)[C@H](CC(C)C)NC1=O)[C@@H](C)CC [SA-21] (Ac-RLIEDICLPRWGCLWEDD-NH2; disulfide 7-13),level at 2 min,[1]; [6],40000 ng/mL
same,level at 1 h,[1]; [6],30000 ng/mL
same,"plasma concentration in 3 h study, in words","[1]; mice, tail vein, 2, 60, 180 min",indistinguishable
same,Kd,"HSA [2]; Discussion, reference not given, read-out: affinity of benchmark",600 nM
same,Kd,HSA [2]; read-out: binding affinity to HSA,~500 nM
NC(=O)N1c2ccccc2C=Cc2ccccc21 [carbamazepine],influence on binding of 14c to HSA,HSA [3],none of these drugs influenced the binding of 14c
FITC-EYEYKpalmESE-NH2,Kd,[4],39 nM
OFS-SWCRC,reactivity with glutathione (GSH),[5],reacted with GSH over 3 hours
